Experimental data: ChEMBL document CHEMBL1153541 (J Med Chem, 2009)
Activity calls are given as the source filed them. No cut-off for these calls is given here.

Key:
Plasmodium falciparum = assay: Antiplasmodial activity after 48 hrs against chloroquine-resistant Plasmodium falciparum K1 by [3H]hypoxanthine uptake; type: functional, organism-based
Leishmania donovani = assay: Antileishmanial activity against Leishmania donovani MHOM/SD/62/1S-CL2D axenic amastigotes after 72 hrs by tetrazolium dye-based microplate reader method; type: functional, organism-based
[1] = Selectivity index, ratio of IC50 for rat L6 cells to IC50 for chloroquine-resistant Plasmodium falciparum K1; type: toxicity, cell-based; conditions: read-out: Ratio IC50
[2] = Selectivity index, ratio of IC50 for rat L6 cells to IC50 for blood stream form of Trypanosoma brucei rhodesiense STIB900 trypomastigotes; type: toxicity, cell-based; conditions: read-out: Ratio IC50
[3] = Selectivity index, ratio of IC50 for rat L6 cells to IC50 for Leishmania donovani MHOM/SD/62/1S-CL2D axenic amastigotes; type: toxicity, cell-based; conditions: read-out: Ratio IC50
L6 = assay: Cytotoxicity against rat L6 cells after 70 hrs by alamar blue assay; type: cell-based; conditions: L6, 70 h
[4] = system: Trypanosoma brucei rhodesiense; assay: Antitrypanosomal activity against blood stream form of Trypanosoma brucei rhodesiense STIB900 trypomastigotes after 70 hrs by alamar blue assay; type: functional, organism-based; conditions: STIB900, 70 h
[5] = system: Trypanosoma brucei rhodesiense; assay: Antitrypanosomal activity against Trypanosoma brucei rhodesiense STIB900 in mouse model of acute trypanosomiasis assessed as induction of cure at 20 mg/kg administered daily for 4 days; type: functional, organism-based; set-up: dose 20 mg/kg
[6] = system: Trypanosoma brucei rhodesiense; assay: Antitrypanosomal activity against Trypanosoma brucei rhodesiense STIB900 in mouse model of acute trypanosomiasis assessed as increase in survival time at 20 mg/kg administered daily for 4 days; type: functional, organism-based; set-up: dose 20 mg/kg
[7] = system: Trypanosoma brucei rhodesiense; assay: Ratio of pentamidine IC50 to compound IC50 for blood stream form of Trypanosoma brucei rhodesiense STIB900 trypomastigotes; type: functional

In the case of `c1ccc(OCCCCCCOc2cccc(-c3cc4cc(C5=NCCN5)ccc4o3)c2)cc1`, the IC50 (Plasmodium falciparum) is reported as 49 nM, the IC50 (Leishmania donovani) is reported as 1900 nM and the selectivity ratio [1] is reported as 51. The selectivity ratio [2] was 26 and the selectivity ratio [3] was 1.
With `CC(C)NC(=N)c1ccc2oc(-c3cccc(OCCCCCCOc4ccccc4)c3)cc2c1` the IC50 (L6) was 7400 nM, the IC50 (Plasmodium falciparum) was 183 nM and the IC50 (Leishmania donovani) was 7000 nM. It also gave a selectivity ratio [1] of 40, a selectivity ratio [2] of 6 and an IC50 [4] of 1160 nM. It also gave a selectivity ratio [3] of 1.
For `N=C(N)c1ccc(OCCCOc2ccc(-c3cc4ccc(C(=N)N)cc4o3)cc2)cc1`, the IC50 (L6) was 8600 nM, the IC50 (Leishmania donovani) was 780 nM and the Activity [5] was “inactive”. For the same compound, the IC50 [4] was 25 nM, the Activity [6] was “Active” and the “Ratio IC50” value [7] was 8.
